Target: T1, GPR84 (Homo sapiens, UniProt Q9NQS5)
T1 construct: expressed in transfected cells; host or cells: HEK293
Experiment: BRET Gαi2 activation biosensor in HEK293 cells transfected with GPR84
Type: cell-based
Excerpt: PBI-4547 (2-[3,5-dipentylphenyl]acetate sodium salt) is a medium-chain FA (MCFA) mimetic (Fig. 1A). Accordingly, we examined the signaling properties of PBI-4547 on receptors known to be activated by MCFAs. […] This biosensor consisted of an Rluc8-tagged Gαi2 subunit, a GFP10-tagged Gγ2 subunit, and an untagged Gβ1. Agonist stimulation and receptor activation triggers a physical separation between the Gα-Rluc8 donor and the GFP10-Gγ2 acceptor, resulting in a decrease in BRET signal, whose amplitude is correlated to ligand efficacy. […] (A) Chemical structure of PBI-4547. (B) Gi pathway activation was monitored in HEK293 cells transfected with GPR84 and the Gαi2 activation biosensor. […] (C) β-arrestin 2 recruitment to activated GPR120 receptor was monitored in HEK293 cells transfected with RLuc8-β-arrestin 2 and GPR120-GFP10. (D) Cells transfected with GPR40 and Gαq or Gαi2 activation biosensor were exposed to increasing concentrations of PBI-4547 or to 500 µM of sodium decanoate, and BRET variation compared with vehicle was measured. Cells were exposed to increasing concentrations of PBI-4547 or to 100 µM of GW9508, and BRET variation compared with vehicle was measured. (E) LanthaScreen TR-FRET competitive binding assay of PBI-4547 and PPAR control agonists to the LBD of PPARα, PPARδ and PPARγ. (F) Cell-based GAL4 transactivation assay in HEK293 cells transfected with the LBD of PPARα, PPARδ or PPARγ, and treated with increasing concentrations of PBI-4547 or PPAR control agonists. Data in (B–D) are expressed as means ± SEM of 4–5 experiments; data in (E,F) are from a representative experiment from a total of 3 to 4 independent experiments. BRET measurements in transiently transfected HEK293 cells were performed as previously described. Ligands were incubated with cells at room temperature for 10 min (G protein biosensors) or 25 min (β-arrestin/GPR120) before collecting BRET[2] readings between Rluc8 and GFP10.

T1 sequence (Q9NQS5 whole entry, species assumed): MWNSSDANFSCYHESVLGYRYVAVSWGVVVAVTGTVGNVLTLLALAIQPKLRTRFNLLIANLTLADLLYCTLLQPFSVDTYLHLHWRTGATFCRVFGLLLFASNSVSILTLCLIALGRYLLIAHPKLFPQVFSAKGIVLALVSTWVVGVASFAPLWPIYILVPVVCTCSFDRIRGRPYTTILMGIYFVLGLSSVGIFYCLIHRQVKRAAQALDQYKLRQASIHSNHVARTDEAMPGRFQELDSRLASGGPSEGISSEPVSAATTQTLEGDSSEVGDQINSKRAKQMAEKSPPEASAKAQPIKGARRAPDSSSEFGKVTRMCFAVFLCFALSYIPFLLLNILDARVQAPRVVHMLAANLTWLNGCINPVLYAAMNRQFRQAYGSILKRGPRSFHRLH

`CCCCCc1cc(CCCCC)cc(CC(=O)[O-])c1.[Na+]` [PBI-4547, 2-[3,5-dipentylphenyl]acetate sodium salt] was tested, and the IC50 (co-treated with 125 mM sodium decanoate and increasing concentrations of PBI-4547, read-out: IC50, inhibition of GPR84/Gαi2 activation) was 17 µM and the “GPR84/Gαi2-mediated BRET signal modulation (agonist mode)” value (compound alone vs vehicle) was “did not lead to GPR84/Gαi2-mediated BRET signal modulation”.

Source: PMC7391726, “Fatty acid mimetic PBI-4547 restores metabolic homeostasis via GPR84 in mice with non-alcoholic fatty liver disease” (Scientific Reports, 2020)
